Results: ChEMBL document CHEMBL3244164, “Synthesis and analgesic activity of 1,3-dihydro-3-(substituted phenyl)imidazo[4,5-b]pyridin-2-ones and 3-(substituted phenyl)-1,2,3-triazolo[4,5-b]pyridines” (J Med Chem, 1978)
The source made the active and inactive calls.

Experiments:
Rattus norvegicus [1] = test: Analgesic activity in Sprague-Dawley rat brewer's yeast treated foot assessed as response threshold at 16 to 32 mg/kg, po; format: functional; details: dose mg/kg 16-32
Rattus norvegicus [2] = test: Analgesic activity in Sprague-Dawley rat normal foot assessed as response threshold at 32 mg/kg, po; format: functional
Mus musculus [3] = test: Analgesic activity in naloxone treated mouse assessed as withdrawal latency at 12.5 to 75 mg/kg, po; format: functional, organism-based
Mus musculus [4] = test: Analgesic activity in mouse assessed as withdrawal latency at 12.5 to 75 mg/kg, po by Haffner tail clamp method; format: functional, organism-based
Rattus norvegicus [5] = test: Analgesic activity in Sprague-Dawley rat brewer's yeast treated foot assessed as response threshold at 8 to 16 mg/kg, po; format: functional; details: dose mg/kg 8-16
Rattus norvegicus [6] = test: Analgesic activity in Sprague-Dawley rat normal foot assessed as response threshold at 16 to 32 mg/kg, po; format: functional; details: dose mg/kg 16-32
Rattus norvegicus [7] = test: Analgesic activity in Sprague-Dawley rat brewer's yeast treated foot assessed as response threshold at 8 mg/kg, po; format: functional
Rattus norvegicus [8] = test: Analgesic activity in Sprague-Dawley rat normal foot assessed as response threshold at 8 to 16 mg/kg, po; format: functional; details: dose mg/kg 8-16
Rattus norvegicus [9] = test: Antiinflammatory activity in Sprague-Dawley rat assessed as inhibition of carrageenan-induced paw edema at 30 mg/kg, po; format: functional
Rattus norvegicus [10] = test: Antiarthritic activity in Lewis rat assessed as inhibition of adjuvant-induced paw swelling at 50 mg/kg, po qd for 13 days measured on day 14; format: functional
Rattus norvegicus [11] = test: Analgesic activity in Sprague-Dawley rat assessed as increase in mean reaction time at 5 mg/kg, po after 1 hr relative to control; format: functional
Rattus norvegicus [12] = test: Analgesic activity in Sprague-Dawley rat assessed as increase in mean reaction time at 5 mg/kg, po after 2 hrs relative to control; format: functional
Rattus norvegicus [13] = test: Analgesic activity in Sprague-Dawley rat assessed as increase in mean reaction time at 5 mg/kg, po after 3 hrs relative to control; format: functional
Rattus norvegicus [14] = test: Analgesic activity in Sprague-Dawley rat assessed as increase in mean reaction time at 5 mg/kg, po after 4 hrs relative to control; format: functional
Rattus norvegicus [15] = test: Analgesic activity in Sprague-Dawley rat assessed as increase in mean reaction time at 5 mg/kg, po after 5 hrs relative to control; format: functional
Rattus norvegicus [16] = test: Analgesic activity in Sprague-Dawley rat assessed as increase in mean reaction time at 10 mg/kg, po after 1 hr relative to control; format: functional
Rattus norvegicus [17] = test: Analgesic activity in Sprague-Dawley rat assessed as increase in mean reaction time at 10 mg/kg, po after 2 hrs relative to control; format: functional
Rattus norvegicus [18] = test: Analgesic activity in Sprague-Dawley rat assessed as increase in mean reaction time at 10 mg/kg, po after 3 hrs relative to control; format: functional
Rattus norvegicus [19] = test: Analgesic activity in Sprague-Dawley rat assessed as increase in mean reaction time at 10 mg/kg, po after 4 hrs relative to control; format: functional
Rattus norvegicus [20] = test: Analgesic activity in Sprague-Dawley rat assessed as increase in mean reaction time at 10 mg/kg, po after 5 hrs relative to control; format: functional
Rattus norvegicus [21] = test: Analgesic activity in Sprague-Dawley rat assessed as increase in mean reaction time at 20 mg/kg, po after 1 hr relative to control; format: functional
Rattus norvegicus [22] = test: Analgesic activity in Sprague-Dawley rat assessed as increase in mean reaction time at 20 mg/kg, po after 2 hrs relative to control; format: functional
Rattus norvegicus [23] = test: Analgesic activity in Sprague-Dawley rat assessed as increase in mean reaction time at 20 mg/kg, po after 3 hrs relative to control; format: functional
Rattus norvegicus [24] = test: Analgesic activity in Sprague-Dawley rat assessed as increase in mean reaction time at 20 mg/kg, po after 4 hrs relative to control; format: functional
Rattus norvegicus [25] = test: Analgesic activity in Sprague-Dawley rat assessed as increase in mean reaction time at 20 mg/kg, po after 5 hrs relative to control; format: functional
Rattus norvegicus [26] = test: Analgesic activity in Sprague-Dawley rat brewer's yeast treated foot assessed as response threshold at 32 mg/kg, po; format: functional

O=c1n(CO)c2cccnc2n1-c1ccc2c(c1)OCO2
Activity (Rattus norvegicus [1]): >25 mm | Activity (Rattus norvegicus [2]): 40 mm

C=CCn1c(=O)n(-c2ccc3c(c2)OCO3)c2ncccc21
Activity (Mus musculus [3]): inactive | Activity (Mus musculus [4]): Active

COc1ccc2c3c1O[C@H]1[C@@H](O)C=C[C@H]4[C@@H](C2)N(C)CC[C@@]341 [CODEINE]
Activity (Rattus norvegicus [5]): >25 mm | Activity (Rattus norvegicus [6]): >40 mm

Cc1ccc(-n2c(=O)[nH]c3cccnc32)c(C)c1
Activity (Rattus norvegicus [1]): >25 mm | Activity (Rattus norvegicus [2]): <40 mm

CN1CC[C@]23c4c5ccc(O)c4O[C@H]2[C@@H](O)C=C[C@H]3[C@H]1C5 [MORPHINE]
Activity (Rattus norvegicus [7]): >34 mm | Activity (Rattus norvegicus [2]): <40 mm | Activity (Rattus norvegicus [8]): >50 mm

O=c1n(CC2CC2)c2cccnc2n1-c1ccc2c(c1)OCO2
Activity (Rattus norvegicus [1]): >25 mm | Activity (Rattus norvegicus [6]): >40 mm

Fc1ccc(F)c(-n2nnc3cccnc32)c1
Activity (Rattus norvegicus [1]): >25 mm | Activity (Rattus norvegicus [2]): <40 mm

Cn1c(=O)n(-c2ccc3c(c2)OCO3)c2ncccc21
Activity (Rattus norvegicus [1]): >25 mm | Activity (Rattus norvegicus [8]): >50 mm

CC(C)n1c(=O)n(-c2ccc3c(c2)OCO3)c2ncccc21
Activity (Rattus norvegicus [7]): >34 mm | Activity (Rattus norvegicus [8]): >50 mm

C=C(Cl)Cn1c(=O)n(-c2ccc3c(c2)OCO3)c2ncccc21
Activity (Rattus norvegicus [1]): >25 mm | Activity (Rattus norvegicus [6]): >40 mm

Fc1ccc(-n2nnc3cccnc32)c(F)c1
Activity (Rattus norvegicus [5]): >25 mm | Activity (Rattus norvegicus [6]): >40 mm

CC(C)(C)n1c(=O)n(-c2ccc3c(c2)OCO3)c2ncccc21
Activity (Rattus norvegicus [1]): >25 mm | Activity (Rattus norvegicus [6]): >40 mm

CCCCC1C(=O)N(c2ccccc2)N(c2ccccc2)C1=O [PHENYLBUTAZONE]
inhibition in vivo at 30 mg/kg (Rattus norvegicus [9]): 39% | inhibition in vivo at 50 mg/kg (Rattus norvegicus [10]): 78%

CC(C)(C)Oc1nc2cccnc2n1-c1ccc2c(c1)OCO2
Activity (Rattus norvegicus [5]): >25 mm | Activity (Rattus norvegicus [2]): <40 mm

CCn1c(=O)n(-c2ccc3c(c2)OCO3)c2ncccc21
Activity (Rattus norvegicus [1]): >25 mm | Activity (Rattus norvegicus [2]): <40 mm

CC(C)Cn1c(=O)n(-c2ccc3c(c2)OCO3)c2ncccc21
Activity (Rattus norvegicus [1]): >25 mm | Activity (Rattus norvegicus [2]): <40 mm

O=c1n(CCO)c2cccnc2n1-c1ccc2c(c1)OCO2
Activity (Rattus norvegicus [5]): >25 mm | Activity (Rattus norvegicus [6]): >40 mm

Nc1ccc(-n2c(=O)[nH]c3cccnc32)cc1
Activity (Rattus norvegicus [1]): >25 mm | Activity (Rattus norvegicus [2]): <40 mm

CC(O)Cn1c(=O)n(-c2ccc3c(c2)OCO3)c2ncccc21 (centres undefined)
Activity (Rattus norvegicus [1]): >25 mm | Activity (Rattus norvegicus [2]): 40 mm

CCCn1c(=O)n(-c2ccc3c(c2)OCO3)c2ncccc21
Activity (Rattus norvegicus [5]): >25 mm | Activity (Rattus norvegicus [8]): >50 mm

c1cnc2c(c1)nnn2-c1ccc2c(c1)OCCO2
Activity (Rattus norvegicus [1]): >25 mm | Activity (Rattus norvegicus [2]): <40 mm

O=c1[nH]c2cccnc2n1-c1ccc2c(c1)OCO2
Activity (Rattus norvegicus [7]): >34 mm | Activity (Rattus norvegicus [8]): >50 mm | Time (Rattus norvegicus [11]): 1.5 s | Time (Rattus norvegicus [12]): 2.1 s | Time (Rattus norvegicus [13]): -0.1 s | Time (Rattus norvegicus [14]): 1.3 s | Time (Rattus norvegicus [15]): 0.4 s | Time (Rattus norvegicus [16]): 2 s | Time (Rattus norvegicus [17]): 3.9 s | Time (Rattus norvegicus [18]): 2.8 s | Time (Rattus norvegicus [19]): 2.3 s | Time (Rattus norvegicus [20]): -0.2 s | Time (Rattus norvegicus [21]): 6 s | Time (Rattus norvegicus [22]): 15 s | Time (Rattus norvegicus [23]): 20.4 s | Time (Rattus norvegicus [24]): 20 s | Time (Rattus norvegicus [25]): 18.3 s | Activity (Mus musculus [3]): inactive | Activity (Mus musculus [4]): Active | inhibition in vivo at 30 mg/kg (Rattus norvegicus [9]): 37% | inhibition in vivo at 50 mg/kg (Rattus norvegicus [10]): 68.3%

O=c1[nH]c2cccnc2n1-c1ccccc1Cl
Activity (Rattus norvegicus [1]): >25 mm | Activity (Rattus norvegicus [2]): <40 mm

O=c1n(-c2ccc3c(c2)OCO3)c2ncccc2n1C1CCCC1
Activity (Rattus norvegicus [5]): >25 mm | Activity (Rattus norvegicus [6]): >40 mm

Cc1ccc(-n2c(=O)[nH]c3cccnc32)cc1
Activity (Rattus norvegicus [1]): >25 mm | Activity (Rattus norvegicus [6]): >40 mm

CCCn1c(=O)n(-c2ccccc2)c2ncccc21
Activity (Rattus norvegicus [1]): >25 mm | Activity (Rattus norvegicus [2]): 40 mm

c1ccc(-c2nc3cccnc3n2-c2ccc3c(c2)OCO3)cc1
Activity (Rattus norvegicus [26]): <25 mm | Activity (Rattus norvegicus [2]): <40 mm

CSCn1c(=O)n(-c2ccccc2)c2ncccc21
Activity (Rattus norvegicus [26]): 25 mm | Activity (Rattus norvegicus [2]): <40 mm

NC(=O)c1cccc(-n2nnc3cccnc32)c1
Activity (Rattus norvegicus [26]): 25 mm | Activity (Rattus norvegicus [2]): <40 mm

CN(C)c1ccccc1-n1nnc2cccnc21
Activity (Rattus norvegicus [26]): <25 mm | Activity (Rattus norvegicus [2]): <40 mm

Fc1ccccc1-n1nnc2cccnc21
Activity (Rattus norvegicus [5]): >25 mm | Activity (Rattus norvegicus [2]): <40 mm

FC(F)(F)c1cccc(-n2nnc3cccnc32)c1
Activity (Rattus norvegicus [26]): 25 mm | Activity (Rattus norvegicus [2]): <40 mm

Cc1oc2ccc(-n3c(=O)[nH]c4cccnc43)cc2c1C
Activity (Rattus norvegicus [26]): <25 mm | Activity (Rattus norvegicus [2]): <40 mm

CCC(C)n1c(=O)n(-c2ccc3c(c2)OCO3)c2ncccc21 (centres undefined)
Activity (Rattus norvegicus [26]): <25 mm | Activity (Rattus norvegicus [2]): <40 mm

CN(C)c1ccccc1-n1c(=O)[nH]c2cccnc21
Activity (Rattus norvegicus [26]): <25 mm | Activity (Rattus norvegicus [2]): <40 mm

CCc1ccc(-n2c(=O)[nH]c3cccnc32)cc1
Activity (Rattus norvegicus [26]): <25 mm | Activity (Rattus norvegicus [2]): <40 mm

O=c1n(-c2ccc3c(c2)OCO3)c2ncccc2n1S(=O)(=O)c1ccc(F)cc1
Activity (Rattus norvegicus [26]): <25 mm | Activity (Rattus norvegicus [2]): <40 mm

c1ccc(Oc2ccc(-n3nnc4cccnc43)cc2)cc1
Activity (Rattus norvegicus [26]): <25 mm | Activity (Rattus norvegicus [2]): <40 mm

Clc1ccc(-n2nnc3cccnc32)cc1Cl
Activity (Rattus norvegicus [26]): <25 mm | Activity (Rattus norvegicus [2]): <40 mm

N#Cc1ccccc1-n1nnc2cccnc21
Activity (Rattus norvegicus [26]): 25 mm | Activity (Rattus norvegicus [2]): <40 mm

CC(=O)Cn1c(=O)n(-c2ccc3c(c2)OCO3)c2ncccc21
Activity (Rattus norvegicus [26]): <25 mm | Activity (Rattus norvegicus [2]): <40 mm

O=c1[nH]c2cccnc2n1-c1c(F)cccc1F
Activity (Rattus norvegicus [26]): <25 mm | Activity (Rattus norvegicus [2]): <40 mm

c1ccc(CCn2nnc3cccnc32)cc1
Activity (Rattus norvegicus [26]): <25 mm | Activity (Rattus norvegicus [2]): <40 mm

CCOC(=O)n1c(=O)n(-c2ccc3c(c2)OCO3)c2ncccc21
Activity (Rattus norvegicus [26]): <25 mm | Activity (Rattus norvegicus [2]): <40 mm

C=CCn1c(=O)n(-c2cccc3c2OCO3)c2ncccc21
Activity (Rattus norvegicus [26]): <25 mm | Activity (Rattus norvegicus [2]): <40 mm

Nc1cnc2c(c1)[nH]c(=O)n2-c1ccccc1F
Activity (Rattus norvegicus [26]): <25 mm | Activity (Rattus norvegicus [2]): <40 mm

O=c1[nH]c2cccnc2n1-c1ccccc1
Activity (Rattus norvegicus [5]): >25 mm | Activity (Rattus norvegicus [2]): 40 mm
